ChEMBL document CHEMBL3611969, “The effect of complexation of 3-formylrifamycin SV macrocyclic ether derivatives with metal cations and small nitrogen-containing organic molecules on antibacterial activity against S. aureus and S. epidermidis” (Bioorg Med Chem Lett, 2015)
≈ marks a conversion by molar mass, not a printed value.

How the values were obtained:
[1] = system: Staphylococcus epidermidis; test: Antibacterial activity against Staphylococcus epidermidis ATCC 49134 after 18 hrs by serial microdilution method in presence of 4-fluorobenzylamine; assay type: functional; conditions: ATCC 49134, 18 h
[2] = Octanol-water partition coefficient, log P of the compound by UV-vis method in presence of histamine; assay type: physicochemical
Staphylococcus aureus [3] = test: Antibacterial activity against Staphylococcus aureus ATCC 6538 after 18 hrs by serial microdilution method in presence of 4-fluorobenzylamine; assay type: functional; conditions: ATCC 6538, 18 h
Staphylococcus aureus [4] = test: Antibacterial activity against Staphylococcus aureus ATCC 6538 after 18 hrs by serial microdilution method in presence of 2-chlorobenzylamine; assay type: functional; conditions: ATCC 6538, 18 h
[5] = system: Staphylococcus epidermidis; test: Antibacterial activity against Staphylococcus epidermidis ATCC 12228 after 18 hrs by serial microdilution method; assay type: functional; conditions: ATCC 12228, 18 h
Staphylococcus aureus [6] = test: Antibacterial activity against Staphylococcus aureus ATCC 6538 after 18 hrs by serial microdilution method; assay type: functional; conditions: ATCC 6538, 18 h
[7] = Octanol-water partition coefficient, log P of the compound by UV-vis method; assay type: physicochemical
Staphylococcus aureus [8] = test: Antibacterial activity against Staphylococcus aureus ATCC 25923 after 18 hrs by serial microdilution method in presence of 2-chlorobenzylamine; assay type: functional; conditions: ATCC 25923, 18 h
[9] = Solubility of the compound in water at pH 7 in presence of histamine; assay type: physicochemical
Staphylococcus aureus [10] = test: Antibacterial activity against Staphylococcus aureus ATCC 4163 after 18 hrs by serial microdilution method in presence of isoniazid; assay type: functional; conditions: ATCC 4163, 18 h
Staphylococcus aureus [11] = test: Antibacterial activity against Staphylococcus aureus ATCC 25923 after 18 hrs by serial microdilution method in presence of isoniazid; assay type: functional; conditions: ATCC 25923, 18 h
[12] = system: Staphylococcus epidermidis; test: Antibacterial activity against Staphylococcus epidermidis ATCC 12228 after 18 hrs by serial microdilution method in presence of histamine; assay type: functional; conditions: ATCC 12228, 18 h
Staphylococcus aureus [13] = test: Antibacterial activity against Staphylococcus aureus ATCC 25923 after 18 hrs by serial microdilution method; assay type: functional; conditions: ATCC 25923, 18 h
Staphylococcus aureus [14] = test: Antibacterial activity against Staphylococcus aureus ATCC 4163 after 18 hrs by serial microdilution method in presence of histamine; assay type: functional; conditions: ATCC 4163, 18 h
[15] = system: Staphylococcus epidermidis; test: Antibacterial activity against Staphylococcus epidermidis ATCC 49134 after 18 hrs by serial microdilution method; assay type: functional; conditions: ATCC 49134, 18 h
[16] = system: Staphylococcus epidermidis; test: Antibacterial activity against Staphylococcus epidermidis ATCC 49134 after 18 hrs by serial microdilution method in presence of histamine; assay type: functional; conditions: ATCC 49134, 18 h
[17] = system: Staphylococcus epidermidis; test: Antibacterial activity against Staphylococcus epidermidis ATCC 49134 after 18 hrs by serial microdilution method in presence of isoniazid; assay type: functional; conditions: ATCC 49134, 18 h
Staphylococcus aureus [18] = test: Antibacterial activity against Staphylococcus aureus ATCC 25923 after 18 hrs by serial microdilution method in presence of 4-fluorobenzylamine; assay type: functional; conditions: ATCC 25923, 18 h
[19] = system: Staphylococcus epidermidis; test: Antibacterial activity against Staphylococcus epidermidis ATCC 12228 after 18 hrs by serial microdilution method in presence of 4-fluorobenzylamine; assay type: functional; conditions: ATCC 12228, 18 h
Staphylococcus aureus [20] = test: Antibacterial activity against Staphylococcus aureus ATCC 4163 after 18 hrs by serial microdilution method; assay type: functional; conditions: ATCC 4163, 18 h
[21] = system: Staphylococcus epidermidis; test: Antibacterial activity against Staphylococcus epidermidis ATCC 49134 after 18 hrs by serial microdilution method in presence of 2-chlorobenzylamine; assay type: functional; conditions: ATCC 49134, 18 h
Staphylococcus aureus [22] = test: Antibacterial activity against Staphylococcus aureus ATCC 6538 after 18 hrs by serial microdilution method in presence of histamine; assay type: functional; conditions: ATCC 6538, 18 h
Staphylococcus aureus [23] = test: Antibacterial activity against Staphylococcus aureus ATCC 6538 after 18 hrs by serial microdilution method in presence of isoniazid; assay type: functional; conditions: ATCC 6538, 18 h
[24] = system: Staphylococcus epidermidis; test: Antibacterial activity against Staphylococcus epidermidis ATCC 12228 after 18 hrs by serial microdilution method in presence of isoniazid; assay type: functional; conditions: ATCC 12228, 18 h
[25] = system: Staphylococcus epidermidis; test: Antibacterial activity against Staphylococcus epidermidis ATCC 12228 after 18 hrs by serial microdilution method in presence of 2-chlorobenzylamine; assay type: functional; conditions: ATCC 12228, 18 h
Staphylococcus aureus [26] = test: Antibacterial activity against Staphylococcus aureus ATCC 4163 after 18 hrs by serial microdilution method in presence of 4-fluorobenzylamine; assay type: functional; conditions: ATCC 4163, 18 h
Staphylococcus aureus [27] = test: Antibacterial activity against Staphylococcus aureus ATCC 25923 after 18 hrs by serial microdilution method in presence of histamine; assay type: functional; conditions: ATCC 25923, 18 h
[28] = Solubility of the compound in water at pH 7; assay type: physicochemical
Staphylococcus aureus [29] = test: Antibacterial activity against Staphylococcus aureus ATCC 4163 after 18 hrs by serial microdilution method in presence of 2-chlorobenzylamine; assay type: functional; conditions: ATCC 4163, 18 h

MIC [1]: 0.25 µg/mL | logP [2]: 0.69 | MIC (Staphylococcus aureus [3]): 0.25 µg/mL | MIC (Staphylococcus aureus [4]): 0.25 µg/mL | MIC [5]: 0.5 µg/mL (≈ 0.482 µM) | MIC (Staphylococcus aureus [6]): 2 µg/mL (≈ 1.93 µM) | logP [7]: 0.53 | MIC (Staphylococcus aureus [8]): 0.25 µg/mL | solubility [9]: 410 µg/mL | MIC (Staphylococcus aureus [10]): 1 µg/mL | MIC (Staphylococcus aureus [11]): 1 µg/mL | MIC [12]: 1.25 µg/mL | MIC (Staphylococcus aureus [13]): 2 µg/mL (≈ 1.93 µM) | MIC (Staphylococcus aureus [14]): 0.125 µg/mL | MIC [15]: 0.5 µg/mL (≈ 0.482 µM) | MIC [16]: 0.125 µg/mL | MIC [17]: 0.5 µg/mL | MIC (Staphylococcus aureus [18]): 0.25 µg/mL | MIC [19]: 0.25 µg/mL | MIC (Staphylococcus aureus [20]): 2 µg/mL (≈ 1.93 µM) | MIC [21]: 0.25 µg/mL | MIC (Staphylococcus aureus [22]): 0.125 µg/mL | MIC (Staphylococcus aureus [23]): 1 µg/mL | MIC [24]: 0.5 µg/mL | MIC [25]: 0.25 µg/mL | MIC (Staphylococcus aureus [26]): 0.25 µg/mL | MIC (Staphylococcus aureus [27]): 0.125 µg/mL | solubility [28]: 110 µg/mL (≈ 106 µM) | MIC (Staphylococcus aureus [29]): 0.25 µg/mL
SMILES: CO[C@H]1/C=C/O[C@@]2(C)Oc3c(C)c(O)c4c(O)c(c(CNc5ccc6c(c5)OCCOCCOCCOCCOCCO6)c(O)c4c3C2=O)NC(=O)/C(C)=C\C=C\[C@H](C)[C@H](O)[C@@H](C)[C@@H](O)[C@@H](C)[C@H](OC(C)=O)[C@@H]1C
